Experiments:
SW480 cells = assay: Soft agar colony growth assay, SW480; assay type: cell-based, human; settings: SW480, 10 days; AZD1480 1 μM, S3I-201 50 μM, IL11 10 ng/ml
Procedure: e Photograph of SW480 and SW480^APC CRC cells grown for 10 days under colony forming conditions in soft agar in the presence of vehicle or 1 μM of Jak2 inhibitor AZD1480 (Jak2i) (Scale bar=200 μm)
f Colony forming capacity of an isogenic pair of SW480 cells scored 10 days after the indicated treatment. (*p≦0.04; triplicate cultures and repeated).
SW480 and SW480^APC cells (Faux et al., 2004) were seeded in 2 ml of RPMI media supplemented with 10% FBS and 1% penicillin/streptomycin in 35 mm culture dishes at a density of 2×10^5 cells per dish. Three days later cultures were exposed to AZD1480 (1 μM) for 15 min. Co-immunofluorescence was then performed with antibodies to rabbit phospho-Stat3 (Tyr705, Santa Cruz #9134s, 1:200 dilution) and mouse β-catenin (Transduction Laboratories, 1:400). Colony formation assays of SW480 cells in soft agar were performed as described (Faux et al., 2004) in the presence of either AZD1480, (1 μM), the Stat3 inhibitor S3I-201 (Biovision, 50 μM) or recombinant human IL11 (Genetics Institute, 10 ng/ml). All experiments were performed in triplicates and repeated at least once. Vehicle was methylcellulose.

RKO cells = assay: RKO tumor xenografts; assay type: in vivo; settings: RKO (low Wnt signaling), BALB/c nude mice, daily gavage 30 mg/kg from day 7
Procedure: (§1) c, d Tumour xenograft burden in BALB/c nude mice injected s.c. with DLD1 cells or RKO cells in PBS and receiving daily gavage with AZD1480 (30 mg/kg) or vehicle starting on the 7th day after cell inoculation. (*p≦0.0004; two sided t-test; n=8).

intestinal tumours [1] = assay: Intestinal tumour burden after tamoxifen-induced conditional Apc deletion in Lgr5CreERT2;Apcfl/fl mice; assay type: in vivo; settings: tamoxifen-treated Lgr5^CreERT2;Apc^fl/fl mice, prophylactic daily AZD1480 30 mg/kg, 5 weeks
Procedure: e Quantification of intestinal tumour burden of mice using the Metamorph analysis tool (Barker et al., 2009) after tamoxifen-induced conditional Apc deletion in adult Lgr5^CreERT2;Apc^fl/fl mice that also received daily administration of AZD1480 (30 mg/kg) or vehicle during this time. (*p≦0.04; n=3 mice).
d Intestinal tumour burden 5 weeks after tamoxifen-induced conditional Apc deletion in adult Lgr5^CreERT2;Apc^fl/fl mice that also received daily administration of AZD1480 (Jak2i; 30 mg/kg) or vehicle during this time. Higher magnifications of the boxed areas are provided and arrows point to tubular adenomas whilst arrowheads point to micro-adenomas. Scale bars=1 mm.
10 week old Lgr5CreERT2;Apcfl/fl mice received four i.p injections with tamoxifen (10 mg/ml; 300 ul, 200 ul, 200 ul, 200 ul) over four consecutive days. Three days after the last injection, mice received daily oral gavages with either vehicle (tap water, pH 2.0) or CYT387 (30 mg/kg) for four weeks. Regime was 5 days treatment followed by 2 days off treatment.
(§2) Hematoxilin and Eosin-stained sections were scanned using an Aperio ScanScope XT (Aperio, USA) pathology slide scanner with a 20x PlanApo NA0.6 objective and areas of interest were extracted using Aperio ImageScope software v11.1.2.760. The area of individual tumors was outlined using MetaMorph v7.7.7 and standardized against the entire length of the colon section as described (Barker et al., 2009).

DLD1 cells = assay: DLD1 tumor xenografts; assay type: in vivo, mice (human DLD1 xenograft); settings: DLD1 (high Wnt signaling), BALB/c nude mice, daily gavage 30 mg/kg from day 7
Procedure: as §1

intestinal tumours [2] = assay: Treatment of ApcMin mice with established intestinal tumours; assay type: in vivo; settings: Apc^Min mice treated daily 30 mg/kg from 6 to 12 weeks of age; increased in vehicle cohort
From the text: as §2

intestinal epithelium = assay: Homeostatic turnover of the intestinal epithelium and body weight in treated mice; assay type: in vivo
Procedure: a qRT-PCR expression analysis for Wnt target genes from RNA extracted from AZD1480 or vehicle-treated BALB/c-nude hosts used for the xenograft experiments (*p<0.04, n≧5 mice). b Immunohistochemical analysis of cell proliferation (BrdU), goblet cells (Periodic Acid/Schiff, PAS) and Paneth cells ([…]) or vehicle Control. Scale bar 50 μm. c Weight of BALB/c-nude mice treated with either vehicle or AZD1480 (30 mg/kg, daily) between days 5 and 21 of xenograft experiment (n=8).

[3] = mice treated for 3 weeks, 30 mg/kg daily, vs vehicle

SMILES: Cc1cc(Nc2nc(N[C@@H](C)c3ncc(F)cn3)ncc2Cl)n[nH]1 [AZD1480]
- colony formation in soft agar (SW480 cells): strongly impaired
- xenograft tumor growth (RKO cells): did not result in reduced tumor growth
- growth and de novo tumour formation (intestinal tumours [1]): profoundly reduced
- xenograft growth (DLD1 cells): sufficient to reduce xenograft growth
- total tumour area (intestinal tumours [2]): remained remarkably constant
- tumour number (intestinal tumours [2]): remained remarkably constant
- body weight (intestinal epithelium; BALB/c-nude mice, 30 mg/kg daily, days 5 to 21 of xenograft experiment): did not affect body weight
- intestinal expression of prototypical Wnt target genes (intestinal epithelium; BALB/c-nude xenograft hosts, qRT-PCR): remained unaffected
- proportion of BrDU-positive proliferating intestinal epithelium cells (intestinal epithelium; [3]): no differences
- proportion of PAS-staining goblet cells (intestinal epithelium; [3]): no differences
- proportion of lysozyme-positive Paneth cells (intestinal epithelium; [3]): no differences
